Where two headings read alike, the source gives them in different places.
Assays:
Cryptosporidium parvum = test: qRT-PCR assay of the growth of C. parvum in vitro in HCT-8 host cells (primary and secondary screening, EC50); assay type: cell-based; settings: for Inhibition (%): primary screening at 10 uM; for % Inhibition (3.3 uM): secondary screening at 3.3 uM
[1] = primary screening at 10 uM, from Hs18S ΔCT
[2] = primary screening at 10 uM, treated vs control

Row | Structure (SMILES) | Inhibition (%) (Cryptosporidium parvum) | Cytotoxicity (%) (HCT-8 host cells (Hs18S); [1]) | Hs18S ΔCT (HCT-8 host cells (Hs18S); [2]) | Hs18S ΔCT (HCT-8 host cells (Hs18S)) | Cytotoxicity (%) (HCT-8 host cells (Hs18S); 10 µM) | % Inhibition (3.3 uM) (Cryptosporidium parvum)
1 | C[C@]12CCC(=O)C[C@@H]1CC[C@@H]1[C@@H]2CC[C@]2(C)C(=O)CC[C@@H]12 [5alpha-ANDROSTAN-3,17-DIONE] | -13.88% | -0.1% | 0.00 |  |  | 
2 | CC(C)CCC[C@@H](C)[C@H]1CC[C@H]2[C@@H]3CC[C@H]4C[C@@H](O)CC[C@]4(C)[C@H]3CC[C@]12C [5alpha-CHOLESTANOL] | -23.23% | -2.4% | -0.03 |  |  | 
3 | O=c1cc(-c2ccc(O)cc2)oc2ccc(O)cc12 [6,4'-DIHYDROXYFLAVONE] | 28.18% | 17.9% | 0.28 |  |  | 
4 | COc1cc2occ(-c3ccc(OC)c(OC)c3OC)c(=O)c2cc1OC [6,7,2',3',4'-PENTAMETHOXYISOFLAVONE] | 39.55% | -30.1% | -0.38 |  |  | 
5 | O=c1cc(-c2ccccc2O)oc2cc(O)ccc12 [7,2'-DIHYDROXYFLAVONE] | -16.96% | 12.6% | 0.19 |  |  | 
6 | COc1ccc(-c2coc3cc(OC)ccc3c2=O)cc1 [7,4'-DIMETHOXYISOFLAVONE] | 1.31% | 3.0% | 0.04 |  |  | 
7 | CC(=O)OCC1=C(C(=O)O)N2C(=O)[C@@H](N)[C@H]2SC1 [7-AMINOCEPHALOSPORANIC ACID] | -11.44% | 12.1% | 0.19 |  |  | 
8 | CC(=O)O[C@H]1C[C@@H](OC(C)=O)C(C)(C)C2CC(=O)[C@]3(C)C(CC[C@@]4(C)[C@H](c5ccoc5)OC(=O)[C@H]5O[C@]543)[C@]21C (some centres unmarked) [7-DEACETOXY-7-OXOKHIVORIN] | 40.16% | 13.5% | 0.21 |  |  | 
9 | CC(=O)O[C@@H]1C[C@]2(C)[C@@H](C(C)=O)CC[C@H]2[C@@H]2CCC3=CC(=O)CC[C@]3(C)[C@H]21 [11a-ACETOXYPROGESTERONE] | 10.83% | -16.6% | -0.22 |  |  | 
10 | CC(=O)Oc1ccc2c(C)cc(=O)oc2c1 [ACETYL HYMETOCHROME] | -35.81% | -4.5% | -0.06 |  |  | 
11 | CNCC(=O)c1ccc(O)c(O)c1.Cl [ADRENOLONE HYDROCHLORIDE] | 26.43% | -16.6% | -0.22 |  |  | 
12 | CCCCCCCCCCCCCCCCC(C(=O)O)C(O)(CC(=O)O)C(=O)O (centres unmarked) [AGARIC ACID] | -4.50% | 18.9% | 0.30 |  |  | 
13 | O=C(O)CCCCCCCC(O)C(O)CCCCCCO (centres unmarked) [ALEURETIC ACID] | 36.82% |  |  | 0.24 | 15.2 | 
14 | C[C@]12C=CC(=O)C=C1CC[C@@H]1[C@@H]2CC[C@]2(C)C(=O)CC[C@@H]12 [ANDROSTA-1,4-DIEN-3,17-DIONE] | 15.07% | 0.7% | 0.01 |  |  | 
15 | Br.CN1[C@H]2C[C@H](OC(=O)[C@H](CO)c3ccccc3)C[C@@H]1[C@@H](O)C2 [ANISODAMINE HYDROBROMIDE] | 5.51% | -32.6% | -0.41 |  |  | 
16 | COc1cc2c(cc1OC)-c1c(oc3cc(O)cc(O)c3c1=O)CO2 [APOTOXICAROL] | 1.64% | 10.7% | 0.16 |  |  | 
17 | CN[C@@H]1[C@@H](O[C@H]2O[C@H](CO)[C@@H](N)[C@H](O)[C@H]2O)O[C@H]2C[C@@H](N)[C@@H](O[C@H]3[C@H](O)[C@@H](O)[C@H](N)C[C@@H]3N)O[C@@H]2[C@@H]1O.O=S(=O)(O)O [APRAMYCIN SULFATE] | 42.68% | -3.1% | -0.04 |  |  | 
18 | OC[C@@H](O)C(O)[C@H](O)CO [ARABITOL] | 8.73% | -2.6% | -0.04 |  |  | 
19 | CC(C)(O)[C@@H]1CC[C@](C)([C@H]2[C@@H](O)C[C@@]3(C)[C@@H]4C[C@H](O[C@@H]5O[C@H](CO)[C@@H](O)[C@H](O)[C@H]5O)[C@H]5C(C)(C)[C@@H](O[C@@H]6OC[C@@H](O)[C@H](O)[C@H]6O)CC[C@@]56C[C@@]46CC[C@]23C)O1 [ASTRAGALOSIDE IV] | -18.98% | -14.1% | -0.19 |  |  | 
20 | C=CCCCCCCCCCCCC(O)CC(O)COC(C)=O (centres unmarked) [AVOCADENE ACETATE] | -0.39% | -38.4% | -0.47 |  |  | 
21 | C=CCCCCCCCCCCCc1ccco1 [AVOCADENOFURAN] | -21.47% | -32.5% | -0.41 |  |  | 
22 | COc1ccc(-c2coc3cc(O)cc(O)c3c2=O)cc1 [BIOCHANIN A] | 14.14% | 6.9% | 0.10 |  |  | 
23 | O=C(O)CC[N+](=O)[O-] [BOVINOCIDIN] | 41.04% | -25.1% | -0.32 |  |  | 

Row | Structure (SMILES) | Inhibition (%) (Cryptosporidium parvum) | Cytotoxicity (%) (HCT-8 host cells (Hs18S); [1]) | Hs18S ΔCT (HCT-8 host cells (Hs18S); [2]) | Hs18S ΔCT (HCT-8 host cells (Hs18S)) | Cytotoxicity (%) (HCT-8 host cells (Hs18S); 10 µM) | % Inhibition (3.3 uM) (Cryptosporidium parvum)
24 | CC1=CC2C(C(C)C)CCC(C)(O)C2CC1 (centres unmarked) [CADIN-4-EN-10-OL] | -28.21% | -34.1% | -0.42 |  |  | 
25 | CC1=C(/C=C/C(C)=C/C=C/C(C)=C/C=C/C=C(C)/C=C/C=C(C)/C=C/C2=C(C)C(=O)CCC2(C)C)C(C)(C)CCC1=O [CANTHAXANTHIN, CANTHAXANTHIN (euglenanone)] | 52.72% |  |  |  | -19.8% | 
26 | C[N+](C)(C)CC(O)CC(=O)O.[Cl-] (stereo not drawn) [CARNITINE (dl) HYDROCHLORIDE] | -3.41% | -73.4% | -0.79 |  |  | 
27 | OC[C@H]1O[C@@H](O[C@H]2[C@H](O)[C@@H](O)[C@H](O)O[C@@H]2CO)[C@H](O)[C@@H](O)[C@@H]1O [CELLOBIOSE (D[+])] | -5.56% |  | 0.91 |  |  | 
28 | CC(C)CCC[C@@H](C)[C@H]1CC[C@H]2[C@@H]3CC[C@H]4CCCC[C@]4(C)[C@H]3CC[C@]12C [CHOLESTANE] | 13.94% | 12.2% | 0.19 |  |  | 
29 | CC(=O)O[C@H]1CC[C@@]2(C)C(=CC[C@H]3[C@@H]4CC[C@H]([C@H](C)CCCC(C)C)[C@@]4(C)CC[C@@H]32)C1 [CHOLESTERYL ACETATE] | -22.86% | -5.8% | -0.08 |  |  | 
30 | CC(C)CCC[C@@H](C)[C@H]1CC[C@H]2[C@@H]3CC=C4C[C@@H](OC(=O)c5ccccc5)CC[C@]4(C)[C@H]3CC[C@]12C [CHOLESTERYL BENZOATE] | -14.05% | 5.3% | 0.08 |  |  | 
31 | C[N+](C)(C)CCO.[Cl-] [CHOLINE CHLORIDE] | 20.98% |  |  | 0.33 | 20.6 | 
32 | C[C@H](CC(=O)[C@@H]1OC1(C)C)[C@H]1C(=O)C[C@@]2(C)C3=CC[C@H]4C(C)(C)[C@@H](O[C@@H]5OC[C@@H](O)[C@H](O)[C@H]5O)CC[C@@]45C[C@@]35[C@@H](O)C[C@]12C [CIMICIFUGOSIDE H1] | 58.34% | 69.4% | 1.71 |  |  | 
33 | COc1cc2cc3c4cc(OC)c(OC)cc4cc[n+]3c(C)c2cc1OC.[Cl-] [CORALYNE CHLORIDE] | -5.22% | -23.6% | -0.31 |  |  | 
34 | C[C@]12CCC(=O)C=C1CC[C@@H]1[C@@H]2C(=O)C[C@@]2(C)[C@H]1CC[C@]2(O)C(=O)CO [CORTISONE] | -10.93% |  | -0.17 |  |  | 
35 | COC(=O)[C@H]1[C@H]2C[C@H]3c4[nH]c5ccccc5c4CCN3C[C@@H]2CC[C@@H]1O [CORYNANTHINE] | -58.95% | -53.1% | -0.61 |  |  | 
36 | N[C@@H]1CONC1=O [CYCLOSERINE (D)] | -10.45% | -30.0% | -0.38 |  |  | 
37 | COc1cc2c(cc1OC)Cc1cc(OC)c(OC)cc1Cc1cc(OC)c(OC)cc1C2 [CYCLOVERATRYLENE] | 83.81% | -2.2% | -0.03 |  |  | -85%
38 | OC[C@H]1O[C@H](O[C@H]2[C@H](O)[C@@H](O)[C@H](O)O[C@@H]2CO)[C@H](O)[C@@H](O)[C@@H]1O [D-(+)-MALTOSE] | 55.12% |  | -0.19 |  |  | 
39 | COc1ccc(-c2cc(=O)c3c(O)c(OC)c(OC)c(OC)c3o2)cc1OC [DEMETHYLNOBILETIN] | 91.41% | -4.6% | -0.06 |  |  | 29%
40 | CC(=O)O[C@@H]1C[C@H]2C(C)(C)C(=O)C=C[C@]2(C)[C@H]2CC[C@]3(C)C(=CC(=O)O[C@H]3c3ccoc3)[C@@]21C [DEOXYGEDUNIN] | 28.62% | 15.4% | 0.24 |  |  | 
41 | CC(=O)O[C@H]1C[C@@H](OC(C)=O)C(C)(C)[C@@H]2C[C@@H](OC(C)=O)[C@@]3(C)C4=CC(=O)O[C@@H](c5ccoc5)[C@]4(C)CC[C@@H]3[C@@]12C [DEOXYKHIVORIN] | 27.34% | 7.7% | 0.11 |  |  | 
42 | Cl.c1ccc2c(c1)CN1CCCC1=N2 [DEOXYPEGANINE HYDROCHLORIDE] | 36.29% |  |  | -0.06 | -4.6 | 
43 | C=C[C@@]1(C)CC(=O)[C@@]2(O)[C@](C)(O1)[C@@H](O)[C@@H](O)C1C(C)(C)CC[C@H](O)[C@@]12C (some centres unmarked) [DESACETYLCOLFORSIN] | -6.53% | 14.3% | 0.22 |  |  | 
44 | CC(=O)[C@H]1CC[C@H]2[C@@H]3CCC4C[C@H](O)CC[C@]4(C)[C@H]3C[C@H](O)[C@]12C (stereo partly drawn) [DIHYDROXY (3alpha,12alpha)PREGNAN-20-ONE] | -32.59% | -29.0% | -0.37 |  |  | 
45 | COC(=O)/C(C)=C\CC12OC(C)(C)C3CC(C=C4C(=O)c5c(c(CCC(C)(C)Cl)c6c(c5OC)C5CC(C)(CCC5=C(C)C)O6)OC431)C2=O (centres unmarked) [DIMETHYL GAMBOGINATE] | 93.45% | 79.7% | 2.30 |  |  | 47%

Source: publication PMC6736568, “Discovery of Novel Anti-cryptosporidial Activities From Natural Products by in vitro High-Throughput Phenotypic Screening” (Frontiers in Microbiology, 2019)
